# Results reported in ChEMBL document CHEMBL1157898 (Bioorg Med Chem Lett, 2010).
# Activity calls are given as the source filed them. The rule behind the calls is not given here.
# What was measured:
# [1] = target: T1, Serine/threonine-protein kinase D2 (Homo sapiens) (UniProt Q9BZL6); test: Inhibition of PKD2
# T1 sequence (whole entry): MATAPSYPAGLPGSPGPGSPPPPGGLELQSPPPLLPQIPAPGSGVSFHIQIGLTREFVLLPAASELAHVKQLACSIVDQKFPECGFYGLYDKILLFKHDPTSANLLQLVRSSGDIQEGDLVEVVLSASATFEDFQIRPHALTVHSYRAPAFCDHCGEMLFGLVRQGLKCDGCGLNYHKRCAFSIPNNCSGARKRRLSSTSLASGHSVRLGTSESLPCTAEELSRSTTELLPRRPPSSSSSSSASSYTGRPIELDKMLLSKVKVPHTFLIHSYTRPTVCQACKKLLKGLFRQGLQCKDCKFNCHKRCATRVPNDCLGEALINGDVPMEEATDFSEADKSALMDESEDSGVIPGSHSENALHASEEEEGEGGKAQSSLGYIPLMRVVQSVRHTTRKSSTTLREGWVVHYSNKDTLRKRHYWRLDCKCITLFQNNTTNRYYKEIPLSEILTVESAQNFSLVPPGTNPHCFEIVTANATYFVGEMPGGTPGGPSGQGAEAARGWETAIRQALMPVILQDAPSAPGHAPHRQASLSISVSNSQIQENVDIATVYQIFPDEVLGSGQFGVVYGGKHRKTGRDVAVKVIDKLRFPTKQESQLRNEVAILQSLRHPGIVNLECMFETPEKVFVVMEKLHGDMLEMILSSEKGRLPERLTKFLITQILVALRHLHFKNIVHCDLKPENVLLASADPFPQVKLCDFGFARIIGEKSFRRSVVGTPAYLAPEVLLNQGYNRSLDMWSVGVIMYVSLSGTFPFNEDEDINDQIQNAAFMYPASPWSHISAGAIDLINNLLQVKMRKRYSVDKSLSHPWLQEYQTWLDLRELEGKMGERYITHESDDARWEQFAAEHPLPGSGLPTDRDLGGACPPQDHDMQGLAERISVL
# [2] = target: Serine/threonine-protein kinase MARK1 (Homo sapiens) (UniProt Q9P0L2); test: Inhibition of MARK1
# [3] = target: Receptor-type tyrosine-protein kinase FLT3 (Homo sapiens) (UniProt P36888); test: Inhibition of FLT3
# [4] = target: Tyrosine-protein kinase Fyn (Homo sapiens) (UniProt P06241); test: Inhibition of FYN
# [5] = target: Serine/threonine-protein kinase pim-2 (Homo sapiens) (UniProt Q9P1W9); test: Inhibition of PIM2
# [6] = target: T2, Serine/threonine-protein kinase Sgk1 (Homo sapiens) (UniProt O00141); test: Inhibition of SGK1
# T2 sequence (whole entry): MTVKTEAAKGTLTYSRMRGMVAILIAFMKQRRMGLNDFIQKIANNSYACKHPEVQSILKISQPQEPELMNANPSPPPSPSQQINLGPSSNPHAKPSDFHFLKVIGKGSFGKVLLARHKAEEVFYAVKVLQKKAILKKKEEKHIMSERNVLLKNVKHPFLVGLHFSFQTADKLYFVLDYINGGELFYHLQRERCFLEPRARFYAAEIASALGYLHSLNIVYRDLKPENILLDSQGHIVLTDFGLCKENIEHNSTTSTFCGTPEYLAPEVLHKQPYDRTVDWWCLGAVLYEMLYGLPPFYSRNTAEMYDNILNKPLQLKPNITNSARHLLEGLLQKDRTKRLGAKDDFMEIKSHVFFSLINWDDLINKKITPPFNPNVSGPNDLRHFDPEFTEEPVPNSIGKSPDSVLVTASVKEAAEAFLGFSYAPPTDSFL
# [7] = target: T3, Interleukin-1 receptor-associated kinase 4 (Homo sapiens) (UniProt Q9NWZ3); test: Inhibition of IRAK4 at 5 uM
# T3 sequence (whole entry): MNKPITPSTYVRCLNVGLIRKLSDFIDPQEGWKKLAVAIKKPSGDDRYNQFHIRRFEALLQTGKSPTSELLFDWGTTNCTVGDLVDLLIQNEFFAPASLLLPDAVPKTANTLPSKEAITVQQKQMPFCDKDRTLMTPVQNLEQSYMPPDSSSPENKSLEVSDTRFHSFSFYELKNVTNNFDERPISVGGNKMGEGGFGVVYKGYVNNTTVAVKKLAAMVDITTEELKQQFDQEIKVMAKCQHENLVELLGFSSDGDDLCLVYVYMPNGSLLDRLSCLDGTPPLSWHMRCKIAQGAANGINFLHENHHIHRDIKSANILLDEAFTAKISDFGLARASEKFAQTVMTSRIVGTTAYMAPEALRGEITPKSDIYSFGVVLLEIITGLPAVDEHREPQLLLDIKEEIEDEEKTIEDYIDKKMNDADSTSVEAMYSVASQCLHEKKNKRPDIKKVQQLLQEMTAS
# [8] = target: Hepatocyte growth factor receptor (Homo sapiens) (UniProt P08581); test: Inhibition of MET
# [9] = target: Serine/threonine-protein kinase PAK 2 (Homo sapiens) (UniProt Q13177); test: Inhibition of PAK2
# [10] = target: Glycogen synthase kinase-3 beta (Homo sapiens) (UniProt P49841); test: Inhibition of GSK3-beta
# [11] = target: Ribosomal protein S6 kinase alpha-5 (Homo sapiens) (UniProt O75582); test: Inhibition of MSK1
# [12] = target: Mitogen-activated protein kinase 14 (Homo sapiens) (UniProt Q16539); test: Inhibition of P38alpha
# [13] = target: MAP kinase-activated protein kinase 2 (Homo sapiens) (UniProt P49137); test: Inhibition of MAPKAPK2
# [14] = target: Protein kinase C beta type (Homo sapiens) (UniProt P05771); test: Inhibition of PKCbeta2
# [15] = target: Insulin-like growth factor 1 receptor (Homo sapiens) (UniProt P08069); test: Inhibition of IGF1R
# [16] = target: Mitogen-activated protein kinase kinase kinase kinase 4 (Homo sapiens) (UniProt O95819); test: Inhibition of HGK
# [17] = target: Rho-associated protein kinase 2 (Homo sapiens) (UniProt O75116); test: Inhibition of ROCK2
# [18] = target: T4, Gamma-secretase (Homo sapiens) (UniProt Q96BI3+Q9NZ42+Q8WW43+P49768+Q92542+P49810); test: Inhibition of gamma secretase mediated amyloid beta 38 generation in human H4 cells at 10 uM by LPECL assay; values are per cent of control
# [19] = target: T4, Gamma-secretase (Homo sapiens); test: Inhibition of gamma secretase mediated amyloid beta 40 generation in human H4 cells at 10 uM by LPECL assay; values are per cent of control
# Chain of MAP kinase-activated protein kinase 2 (Homo sapiens) (P49137 whole entry, looked up): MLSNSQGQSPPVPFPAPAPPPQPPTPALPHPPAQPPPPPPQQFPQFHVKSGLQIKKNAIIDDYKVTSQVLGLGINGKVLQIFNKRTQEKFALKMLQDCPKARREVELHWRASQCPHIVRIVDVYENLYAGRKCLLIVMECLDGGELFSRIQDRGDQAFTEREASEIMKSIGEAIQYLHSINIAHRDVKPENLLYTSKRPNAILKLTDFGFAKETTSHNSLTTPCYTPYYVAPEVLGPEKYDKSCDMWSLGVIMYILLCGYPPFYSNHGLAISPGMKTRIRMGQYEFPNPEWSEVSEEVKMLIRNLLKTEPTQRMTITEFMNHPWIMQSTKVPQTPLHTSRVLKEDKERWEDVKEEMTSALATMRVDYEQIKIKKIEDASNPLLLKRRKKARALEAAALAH
# Chain of Mitogen-activated protein kinase kinase kinase kinase 4 (Homo sapiens) (O95819 2-1239 limits assumed): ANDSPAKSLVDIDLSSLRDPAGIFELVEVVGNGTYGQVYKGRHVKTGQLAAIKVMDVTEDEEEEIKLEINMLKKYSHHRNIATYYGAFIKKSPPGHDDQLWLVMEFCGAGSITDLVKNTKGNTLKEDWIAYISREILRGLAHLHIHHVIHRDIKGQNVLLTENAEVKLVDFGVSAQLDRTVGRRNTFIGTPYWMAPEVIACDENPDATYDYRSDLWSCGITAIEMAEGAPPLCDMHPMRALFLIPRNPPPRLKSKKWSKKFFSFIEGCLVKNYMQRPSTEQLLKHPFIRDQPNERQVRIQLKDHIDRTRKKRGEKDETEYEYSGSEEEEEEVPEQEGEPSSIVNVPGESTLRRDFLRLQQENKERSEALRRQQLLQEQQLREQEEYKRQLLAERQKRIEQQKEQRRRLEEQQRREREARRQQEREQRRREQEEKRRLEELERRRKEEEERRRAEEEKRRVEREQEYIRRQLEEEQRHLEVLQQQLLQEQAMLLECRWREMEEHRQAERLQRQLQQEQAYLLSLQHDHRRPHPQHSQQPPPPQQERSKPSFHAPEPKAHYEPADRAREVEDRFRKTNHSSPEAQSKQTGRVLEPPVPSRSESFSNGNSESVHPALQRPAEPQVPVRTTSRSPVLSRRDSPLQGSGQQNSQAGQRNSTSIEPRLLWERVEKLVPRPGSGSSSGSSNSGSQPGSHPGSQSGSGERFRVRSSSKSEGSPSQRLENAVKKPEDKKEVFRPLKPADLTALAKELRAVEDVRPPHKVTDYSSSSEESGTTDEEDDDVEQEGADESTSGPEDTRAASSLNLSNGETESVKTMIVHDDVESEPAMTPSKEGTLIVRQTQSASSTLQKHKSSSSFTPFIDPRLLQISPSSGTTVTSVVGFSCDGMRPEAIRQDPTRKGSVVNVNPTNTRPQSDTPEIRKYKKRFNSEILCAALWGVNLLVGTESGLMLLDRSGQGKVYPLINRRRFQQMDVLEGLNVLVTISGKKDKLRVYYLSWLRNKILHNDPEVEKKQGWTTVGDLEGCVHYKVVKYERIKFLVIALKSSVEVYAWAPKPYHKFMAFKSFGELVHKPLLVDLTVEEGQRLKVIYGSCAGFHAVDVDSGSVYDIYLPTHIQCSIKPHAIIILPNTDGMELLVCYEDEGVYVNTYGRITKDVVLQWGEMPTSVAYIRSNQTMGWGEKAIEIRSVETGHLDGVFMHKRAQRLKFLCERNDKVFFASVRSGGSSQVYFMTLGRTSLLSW
# Chain of Insulin-like growth factor 1 receptor (Homo sapiens) (P08069 31-736 limits assumed): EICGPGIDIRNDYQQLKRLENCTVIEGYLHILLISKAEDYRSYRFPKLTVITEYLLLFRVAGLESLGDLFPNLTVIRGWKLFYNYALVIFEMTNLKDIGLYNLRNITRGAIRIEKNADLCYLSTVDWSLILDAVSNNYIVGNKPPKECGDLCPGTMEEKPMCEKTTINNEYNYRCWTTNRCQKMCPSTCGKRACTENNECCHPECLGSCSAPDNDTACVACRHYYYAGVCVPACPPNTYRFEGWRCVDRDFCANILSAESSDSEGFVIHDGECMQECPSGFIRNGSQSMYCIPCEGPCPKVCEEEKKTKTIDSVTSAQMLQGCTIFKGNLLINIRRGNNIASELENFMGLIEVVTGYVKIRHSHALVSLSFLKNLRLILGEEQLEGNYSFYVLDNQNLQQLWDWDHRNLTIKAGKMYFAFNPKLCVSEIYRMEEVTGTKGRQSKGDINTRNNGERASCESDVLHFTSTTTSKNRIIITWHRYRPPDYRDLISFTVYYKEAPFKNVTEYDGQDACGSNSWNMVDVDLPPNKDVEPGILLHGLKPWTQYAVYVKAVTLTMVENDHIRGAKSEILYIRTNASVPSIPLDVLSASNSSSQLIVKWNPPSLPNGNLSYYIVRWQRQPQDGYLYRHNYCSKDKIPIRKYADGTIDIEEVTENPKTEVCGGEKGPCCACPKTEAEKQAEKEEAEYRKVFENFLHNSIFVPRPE
# Chain of Insulin-like growth factor 1 receptor (Homo sapiens) (P08069 741-1367 limits assumed): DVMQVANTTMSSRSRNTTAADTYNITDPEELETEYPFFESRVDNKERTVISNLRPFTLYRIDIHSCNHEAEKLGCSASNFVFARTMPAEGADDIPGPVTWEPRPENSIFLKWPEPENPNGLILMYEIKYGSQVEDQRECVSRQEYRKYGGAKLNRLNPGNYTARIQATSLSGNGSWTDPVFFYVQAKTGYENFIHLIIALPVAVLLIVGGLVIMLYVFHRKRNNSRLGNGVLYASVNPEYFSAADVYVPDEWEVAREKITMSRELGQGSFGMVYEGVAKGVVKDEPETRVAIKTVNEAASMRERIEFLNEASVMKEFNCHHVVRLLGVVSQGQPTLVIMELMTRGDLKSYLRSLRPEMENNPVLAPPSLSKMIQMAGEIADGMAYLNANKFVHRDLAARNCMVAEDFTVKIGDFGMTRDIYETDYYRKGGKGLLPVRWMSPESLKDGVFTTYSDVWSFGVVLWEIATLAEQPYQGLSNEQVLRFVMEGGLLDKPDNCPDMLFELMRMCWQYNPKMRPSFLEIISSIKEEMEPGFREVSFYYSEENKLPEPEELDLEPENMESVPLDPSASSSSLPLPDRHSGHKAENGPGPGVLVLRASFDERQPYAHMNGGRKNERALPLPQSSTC
# Chain of Mitogen-activated protein kinase 14 (Homo sapiens) (Q16539 whole entry): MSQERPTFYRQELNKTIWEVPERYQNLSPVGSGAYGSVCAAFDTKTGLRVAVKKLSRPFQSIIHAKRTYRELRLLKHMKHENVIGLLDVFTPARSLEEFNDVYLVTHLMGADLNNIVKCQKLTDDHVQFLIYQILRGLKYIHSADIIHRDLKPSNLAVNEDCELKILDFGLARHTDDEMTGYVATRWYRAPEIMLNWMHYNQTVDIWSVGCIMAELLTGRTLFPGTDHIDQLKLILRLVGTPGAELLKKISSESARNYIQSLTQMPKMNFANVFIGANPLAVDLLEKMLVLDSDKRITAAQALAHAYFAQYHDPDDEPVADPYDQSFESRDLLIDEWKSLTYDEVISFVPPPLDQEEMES
# Chain of Serine/threonine-protein kinase MARK1 (Homo sapiens) (Q9P0L2 whole entry, looked up): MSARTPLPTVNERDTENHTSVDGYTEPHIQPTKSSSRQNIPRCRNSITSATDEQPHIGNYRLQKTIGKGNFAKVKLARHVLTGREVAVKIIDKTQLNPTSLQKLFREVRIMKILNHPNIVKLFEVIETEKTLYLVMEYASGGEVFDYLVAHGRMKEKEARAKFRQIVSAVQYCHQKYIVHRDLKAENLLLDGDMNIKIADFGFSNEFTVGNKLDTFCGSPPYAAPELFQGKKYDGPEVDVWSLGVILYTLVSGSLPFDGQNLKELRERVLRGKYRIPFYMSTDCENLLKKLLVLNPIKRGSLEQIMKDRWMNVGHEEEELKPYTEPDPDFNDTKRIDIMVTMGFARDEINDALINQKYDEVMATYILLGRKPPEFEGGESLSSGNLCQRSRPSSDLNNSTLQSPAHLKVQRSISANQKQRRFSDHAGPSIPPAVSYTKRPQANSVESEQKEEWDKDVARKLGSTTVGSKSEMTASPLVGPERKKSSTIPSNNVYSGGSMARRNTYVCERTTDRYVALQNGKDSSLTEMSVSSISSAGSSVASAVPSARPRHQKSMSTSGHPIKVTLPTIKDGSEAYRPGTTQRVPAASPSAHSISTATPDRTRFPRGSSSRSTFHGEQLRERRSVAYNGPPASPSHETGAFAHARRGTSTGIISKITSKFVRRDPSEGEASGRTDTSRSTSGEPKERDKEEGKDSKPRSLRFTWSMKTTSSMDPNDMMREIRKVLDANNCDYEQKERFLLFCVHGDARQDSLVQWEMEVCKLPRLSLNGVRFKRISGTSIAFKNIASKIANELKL
# Chain of Protein kinase C beta type (Homo sapiens) (P05771 2-671 limits assumed): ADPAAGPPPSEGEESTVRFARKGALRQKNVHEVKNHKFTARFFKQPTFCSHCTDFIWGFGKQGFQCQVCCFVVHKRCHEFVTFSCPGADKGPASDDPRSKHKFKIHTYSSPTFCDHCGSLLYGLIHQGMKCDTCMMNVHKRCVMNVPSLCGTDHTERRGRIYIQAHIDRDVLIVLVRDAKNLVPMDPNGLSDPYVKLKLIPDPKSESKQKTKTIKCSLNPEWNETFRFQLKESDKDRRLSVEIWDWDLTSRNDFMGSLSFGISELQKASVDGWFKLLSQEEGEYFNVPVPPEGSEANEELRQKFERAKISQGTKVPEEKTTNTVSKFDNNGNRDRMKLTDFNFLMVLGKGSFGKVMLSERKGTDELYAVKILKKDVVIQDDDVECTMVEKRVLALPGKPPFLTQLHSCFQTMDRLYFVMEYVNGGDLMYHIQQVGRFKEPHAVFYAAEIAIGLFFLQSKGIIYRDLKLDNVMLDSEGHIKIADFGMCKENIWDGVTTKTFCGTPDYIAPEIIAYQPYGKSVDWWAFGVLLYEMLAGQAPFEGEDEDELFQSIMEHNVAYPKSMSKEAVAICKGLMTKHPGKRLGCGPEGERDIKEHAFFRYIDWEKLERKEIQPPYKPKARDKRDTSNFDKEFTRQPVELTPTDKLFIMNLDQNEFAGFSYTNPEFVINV
inhibition [1],inhibition [2],inhibition [3],inhibition [4],inhibition [5],inhibition [6],inhibition [7],inhibition [8],inhibition [9],inhibition [10],inhibition [11],inhibition [12],inhibition [13],inhibition [14],inhibition [15],inhibition [16],inhibition [17],residual activity [18] [%],residual activity [19] [%],SMILES,further results
inactive,inactive,inactive,inactive,inactive,inactive,inactive,inactive,inactive,inactive,inactive,inactive,inactive,inactive,inactive,inactive,inactive,–,–,O=C1Nc2ccc(Cl)cc2/C1=C\c1cc(F)cc(F)c1,–
inactive,inactive,–,inactive,inactive,inactive,inactive,inactive,inactive,inactive,inactive,inactive,inactive,inactive,inactive,inactive,inactive,27,46,COc1ccc(/C=C2/C(=O)Nc3ccc(Cl)cc32)c(OC)c1OC,inhibition ([3]; concentration not given here): 89%
inactive,inactive,inactive,inactive,inactive,inactive,inactive,inactive,inactive,inactive,inactive,inactive,inactive,inactive,inactive,inactive,inactive,101,96,O=C1Nc2ccc(Cl)cc2/C1=C\c1ccccc1S(=O)(=O)O,–
inactive,inactive,inactive,inactive,inactive,inactive,inactive,inactive,inactive,inactive,inactive,inactive,inactive,inactive,inactive,inactive,inactive,54,72,COc1cc(/C=C2/C(=O)Nc3ccc(Cl)cc32)cc(OC)c1OC,–
inactive,inactive,inactive,inactive,inactive,inactive,inactive,inactive,inactive,inactive,inactive,inactive,inactive,inactive,inactive,inactive,inactive,94,88,O=C1Nc2ccc(Cl)cc2/C1=C\c1ccccc1[N+](=O)[O-],–
–,–,–,–,–,–,< 20%,–,–,–,–,–,–,–,–,–,–,35,65,COc1cc(OC)c(/C=C2/C(=O)Nc3ccc(Cl)cc32)c(OC)c1,inhibition ([1]; concentration not given here): < 20%; inhibition ([2]; concentration not given here): < 20%; inhibition ([3]; concentration not given here): < 20%; inhibition ([4]; concentration not given here): < 20%; inhibition ([5]; concentration not given here): < 20%; inhibition ([6]; concentration not given here): < 20%; inhibition ([8]; concentration not given here): < 20%; inhibition ([9]; concentration not given here): < 20%; inhibition ([10]; concentration not given here): < 20%; inhibition ([11]; concentration not given here): < 20%; inhibition ([12]; concentration not given here): < 20%; inhibition ([13]; concentration not given here): < 20%; inhibition ([14]; concentration not given here): < 20%; inhibition ([15]; concentration not given here): < 20%; inhibition ([16]; concentration not given here): < 20%; inhibition ([17]; concentration not given here): < 20%
inactive,inactive,inactive,inactive,inactive,inactive,inactive,inactive,inactive,inactive,inactive,inactive,inactive,inactive,inactive,inactive,inactive,26,53,CCN(CC)CCNC(=O)c1c(C)[nH]c(/C=C2\C(=O)Nc3ccc(F)cc32)c1C [SUNITINIB],–
inactive,inactive,inactive,inactive,inactive,inactive,inactive,inactive,inactive,inactive,inactive,inactive,inactive,inactive,inactive,inactive,inactive,87,88,O=C1Nc2ccc(Cl)cc2/C1=C\c1ccccc1F,–

SMILES,inhibition [1],inhibition [2],inhibition [3],inhibition [4],inhibition [5],inhibition [6],inhibition [7],inhibition [8],inhibition [9],inhibition [10],inhibition [11],inhibition [12],inhibition [13],inhibition [14],inhibition [15],inhibition [16],inhibition [17],residual activity [18] [%],residual activity [19] [%],further results
COc1cc(OC)c(C=C2C(=O)Nc3ccccc32)c(OC)c1,inactive,inactive,inactive,inactive,inactive,inactive,inactive,inactive,inactive,inactive,inactive,inactive,inactive,inactive,inactive,inactive,inactive,55,77,–
